Data on two molecules can be found in patent US6951878B2, “Benzo[b]thiophenyl or tetrahydro-benzo[b]thiophenyl modulators of protein tyrosine phosphatases (PTPases)” (Novo Nordisk A/S, priority 1998, dated 2005).

Counter-ions that a name gives are not always drawn.

In the experiment the target is T1, truncated form of PTP1B (corresponding to the first 321 amino acids) (Homo sapiens, UniProt P18031).
T1 construct: a truncated form of PTP1B (corresponding to the first 321 amino acids); made in house; host or cells: E. coli
T1 sequence (P18031 1-321): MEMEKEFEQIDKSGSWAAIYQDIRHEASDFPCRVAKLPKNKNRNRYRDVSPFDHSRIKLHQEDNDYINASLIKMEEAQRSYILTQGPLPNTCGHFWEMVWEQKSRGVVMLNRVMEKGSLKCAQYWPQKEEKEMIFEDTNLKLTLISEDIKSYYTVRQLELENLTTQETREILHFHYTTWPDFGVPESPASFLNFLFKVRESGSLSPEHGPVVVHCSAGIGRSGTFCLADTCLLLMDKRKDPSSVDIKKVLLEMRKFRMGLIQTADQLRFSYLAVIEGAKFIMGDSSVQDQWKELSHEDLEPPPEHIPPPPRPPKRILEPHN
The experiment in a line: Inhibition of PTP1B, p-nitrophenyl phosphate substrate. The format is biochemical. The settings on record: substrate p-nitrophenyl phosphate 0.16 to 10 mM; 100 mM sodium acetate pH 5.5; 25° C. for 60 minutes; absorbance at 405 nm. As for the experimental part: The assay conditions are as follows. Appropriate concentrations of the compounds of the invention are added to the reaction mixtures containing different concentrations of the substrate, p-nitrophenyl phosphate (range: 0.16 to 10 mM—final assay concentration). The buffer used was 100 mM sodium acetate pH 5.5, 50 mM sodium chloride, 0.1% (w/v) bovine serum albumin and 5 mM dithiothreitol (total volume […]). The reaction was started by addition of the enzyme and carried out in microtiter plates at 25° C. for 60 minutes. The reactions are stopped by addition of NaOH. […] The data are analyzed using nonlinear regression fit to classical Michaelis Menten enzyme kinetic models. Inhibition is expressed as Ki values in μM.

In the case of `O=C(O)C(=O)Nc1sc2c(c1C(=O)O)CCN(CCc1ccccc1)C2` [Example 6], the affinity corresponds to a Ki of 3 µM. In other words, the single-digit micromolar range.
For `O=C(O)C(=O)Nc1sc2c(c1C(=O)O)CCN(C(=O)c1ccccc1)C2` [Example 1, 6-Benzoyl-2-(oxalyl-amino)-4,5,6,7-tetrahydro-thien[2,3-c]pyridine-3-carboxylic acid, Mono Sodium Salt] the value was 51 µM.

As usually defined, the Ki is a dissociation constant, usually derived from enzyme kinetics or from competition with a known ligand. A lower Ki goes with higher affinity.
